GI50 and IC50 data for 5 molecules are collected here from US8383816B2, “Aryl-quinolyl compounds and their use” (Cancer Research Technology Limited, priority 2008, dated 2013).

Where only a bound is given, the exact number is not on record here.

In one test the test system is WM266.4 melanoma cells. The test can be described thus: SRB Cell Proliferation Assay (SRB GI50). The note with it: Homo sapiens, WM 266-4, 144 h, 6 days growth. The class given is cell-based. The method, then: Biological Methods—SRB Cell Proliferation Assay (SRB GI50)
Cultures of WM266.4 melanoma cells are routinely cultured in DMEM/10% foetal bovine serum, at 37° C., in 5% CO2 water saturated atmosphere. Cultures are maintained in exponential growth phase by sub-culturing before having become confluent (3-5 day intervals). Single cell suspensions are prepared by harvesting an 80 cm^2 tissue culture flask with 5 mL commercial trypsin EDTA. After 5 minutes, the detached cells are mixed with 5 mL fully complemented culture medium and centrifugally pelleted (1000 rpm for 7 minutes). After aspirating the supernatant, the cell pellet is re-suspended in 10 mL fresh medium and the cells fully disaggregated by drawing the whole volume up/down 5 times through a 19-gauge needle. The concentration of the cells is determined using a haemocytometer (1/10 dilution). A suitable volume to give at least a 2-fold excess for the number of tests being conducted, typically 100-200 mL, is prepared by diluting the cell suspension to 10,000/mL, and 100 μL/well dispensed into 96 well plates using a programmable 8-channel peristaltic pump, giving 1000 cells/well, leaving column 12 blank. The plates are returned to the incubator for 24 hours to allow the cells to re-attach.
The compounds being tested are prepared at 20 mM in dimethylsulphoxide. Aliquots (200 μL) are diluted into 20 mL culture medium giving 200 μM, and 10 serial dilutions of 3× performed by transferring 5 mL to 10 mL. Aliquots (100 μL) of each dilution are added to the wells, using an 8-channel pipettor, thus performing a final further 2× dilution, and giving doses ranging from 100 μM to 0.005 μM. Column 11 receives plain culture medium only. Each compound is tested in quadruplicate, each replicate being the average of four wells, and two plates per compound.
After a further 6 days growth, the plates are emptied, and the cells are fixed in 10% trichloroacteic acid for 10 minutes on ice. After thorough rinsing in running tap water, the plates are dried, and stained by adding 50 μL of a solution of 0.1% sulphorhodamine-B in 1% acetic acid, for 10 minutes at room temperature. The stain is poured out and the plates thoroughly rinsed under a stream of 1% acetic acid, thus removing unbound stain, and dried. The bound stain is taken into solution by addition of 150 μL Tris buffer pH 8, followed by 10 minutes on a plate-shaker (approximately 500 rpm). The absorbance at 540 nm in each well (being proportional to the number of cells present) is determined using a plate reader.
After averaging the results in rows A-D and E-H, the blank value (row 12) is subtracted, and results expressed as percentage of the untreated value (row 11). […] The GI50 generated by this procedure is the concentration of the drug that produces a percentage control A540 midway between the saturation, and zero-effect plateaus.

In the next test the test system is pERK. The test can be described thus: Cell Based Phospho-ERK Assay. The note with it: 6 h, cells incubated with test compound for 6 hours. The method, then: Biological Methods—Cell Based Phosho-ERK Assay
Compounds were assessed using a cell-based assay which was performed according to the following protocol.
Plate out 16,000 cells/well in 99 μL medium in a 96-well plate.
1. Add 1 μL inhibitor to the cells […].
2. Incubate the cells with test compound for 6 hours at 37° C.
3. Aspirate off the solution from all of the wells.
4. Fixate the cells with 100 μL 4% formaldehyde/0.25% Triton X-100 PBS per well.
5. Incubate the plate for 1 hour at 4° C.
6. Aspirate off the fixing solution and add 300 μL TBS per well.
7. Leave the plate overnight at 4° C.
1. Wash the plate 2× with 200 μL PBS per well.
2. Block with 100 μL 5% dried milk in TBS.
3. Incubate the plate for 20 minutes at 37° C.
4. Wash the plate 2× with 0.1% tween/H2O.
5. Add 50 μL of 3 μg/mL primary antibody pERK (Sigma M8159), diluted in 5% milk powder/TBS, to each well.
6. Incubate the plate for 2 hours at 37° C.
7. Wash the plate 3× with 0.1% tween/H2O.
8. Add 50 μL of 0.45 μg/mL secondary Europium-labelled anti-mouse antibody (Perkin Elmer) to each well.
9. Incubate the plate for 1 hour at 37° C.
10. Wash the plate 3× with 0.1% tween/H2O.
11. Add 100 μL enhancement solution (Perkin Elmer) to each well.
12. Leave the plate for approximately 10 minutes at room temperature before gently shaking the plate.
13. Read Europium Time Resolved Fluorescence in Victor2.
14. Wash the plate 2× with 0.1% tween/H2O.
15. Measure the protein concentration with BCA (Sigma) by adding 200 μL of solution per well.
16. Incubate the plate for 30 minutes at 37° C.
17. Read absorbance levels at 570 nm in a plate reader.
Note that Europium counts are normalised for protein levels by dividing counts by absorbance.
(§1) Values for the blank (no cells) are subtracted from all values. The DMSO controls are set as 100% activity and assay points (the response) are calculated as a percentage of the DMSO control. Data are plotted using Graphpad Prism software and a non-linear regression line is calculated using a variable slope sigmoidal dose-response equation (Y=Bottom+(Top−Bottom)/(1+10^((LogEC50−X)*HillSlope)) where X is the logarithm of concentration. Y is the response). The IC50 generated by this procedure is the concentration of the drug that produces a percentage control fluorescence value midway between the saturation, and zero-effect plateaus. Three independent assays are usually performed and the mean IC50 is reported.

In the next test the target is B-RAF (Homo sapiens, UniProt P15056, V600E). The test can be described thus: DELFIA Kinase Assay. Format: biochemical. The note with it: 100 μM ATP. As for the experimental part:
Biological Methods—DELFIA Kinase Assay
Compounds were assessed by a kinase assay performed according to the following protocol.
DELFIA Kinase Buffer (DKB):
DKB1 (DKB with B-RAF and MEK Protein):
Combine 4950 μL of DKB and 50 μL of 2.5 mg/ml GST-MEK stock (to give […] of MEK per 40 μL). Then add 22.5 μL of B-RAF to give ˜0.2 μL of B-RAF per 40 μL.
DKB2 (DKB with MEK Protein):
Combine 4950 μL of DKB and 50 μL of 2.5 mg/ml GST-MEK stock (to give 1 mg of MEK per 40 μL). Use 500 μL of this for the blow out (BO) and the empty vector (EV) control.
100 mM stock, dilute to 500 μM to give 100 μM final concentration in assay.
Inhibitors (Test Compounds):
Phospho-MEK½ CST #9121S diluted 1:1000 in DELFIA assay buffer (AB). Preincubate antibody in the AB for 30 minutes at room temperature prior to use.
Anti-rabbit-Eur labelled secondary Perkin Elmer #AD0105 diluted 1:1000 in DELFIA assay buffer (AB). Preincubate antibody in the AB for 30 minutes at room temperature prior to use. (Primary and secondary antibodies were incubated together.)
1. Preblock wells with 5% milk in TBS for 1 hour.
2. Wash wells with 3× with 200 μL TBS.
3. Plate out 40 μL of DKB1 for all inhibitors (test compounds), DMSO control, and optionally other control compounds.
4. Plate out 40 μL of DKB2 for BO and EV wells.
5. Add inhibitors (test compounds) at 0.5 μL per well according to desired plate layout.
6. Add 0.5 μL DMSO to vehicle control wells.
7. Add 2 μL of B-RAF to BO and EV wells.
8. Pre-incubate with inhibitors (test compounds) for 10 minutes at room temperature with shaking.
9. Add 10 μL of 500 μM ATP stock, in DKB, to give 100 μM assay concentration.
10. Seal plates with TopSeal and incubate at room temperature with shaking for 45 minutes.
11. Wash plates 3× with 200 μL 0.1% Tween20/Water to terminate reaction.
12. Add 50 μL per well of antibody mix and incubate for 1 hour at room temperature with shaking.
13. Wash plates 3× with 200 μL 0.1% Tween20/Water.
14. Add 100 μL DELFIA enhancement solution per well, cover in foil, and incubate at room temperature for 30 minutes with shaking.
15. Read on Victor using Europium protocol.
as §1, with “(Empty Vector)” for “(no cells)”

Chain of B-RAF (P15056 whole entry V600E): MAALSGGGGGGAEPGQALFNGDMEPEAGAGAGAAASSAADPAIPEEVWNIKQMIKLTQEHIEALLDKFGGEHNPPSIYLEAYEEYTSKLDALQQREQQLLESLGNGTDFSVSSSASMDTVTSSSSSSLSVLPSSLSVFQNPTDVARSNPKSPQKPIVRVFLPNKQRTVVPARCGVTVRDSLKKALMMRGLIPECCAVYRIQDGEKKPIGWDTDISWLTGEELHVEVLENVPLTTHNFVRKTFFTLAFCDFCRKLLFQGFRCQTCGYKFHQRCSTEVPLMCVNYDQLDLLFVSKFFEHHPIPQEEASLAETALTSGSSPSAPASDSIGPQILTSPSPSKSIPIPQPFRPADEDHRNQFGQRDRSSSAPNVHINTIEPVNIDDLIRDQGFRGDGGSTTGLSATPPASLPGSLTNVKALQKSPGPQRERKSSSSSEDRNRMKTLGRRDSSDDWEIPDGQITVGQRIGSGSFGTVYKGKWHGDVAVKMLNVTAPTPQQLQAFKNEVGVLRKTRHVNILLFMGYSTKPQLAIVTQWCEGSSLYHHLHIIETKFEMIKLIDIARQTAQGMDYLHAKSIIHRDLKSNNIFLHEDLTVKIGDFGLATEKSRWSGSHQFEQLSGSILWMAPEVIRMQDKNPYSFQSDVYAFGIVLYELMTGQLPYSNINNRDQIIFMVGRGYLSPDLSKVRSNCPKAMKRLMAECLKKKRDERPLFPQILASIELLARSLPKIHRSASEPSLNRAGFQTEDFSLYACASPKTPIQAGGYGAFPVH

Consider `CC(C)(C)c1cc(NC(=O)Nc2ccc(Oc3ccnc4[nH]c(=O)cnc34)c3cccnc23)n(-c2ccccc2)n1` [BB-008, 5-[(8-Amino-quinolinyl-5-oxy)carbonylamino-5-(1-N-phenyl-3-t-butyl-imidazolyl)]-pyridin-[2,3]pyrazin-2-one], for which the GI50 in the test on WM266.4 melanoma cells was not above 10 µM. Also, the results for the IC50 with pERK and against B-RAF were not above 10 µM and not above 1 µM, respectively.

The molecule `C=CCn1nc(C(C)(C)C)cc1NC(=O)Nc1ccc(Oc2ccnc3[nH]c(=O)c(C)nc23)c2cccnc12` [BB-009] yielded a GI50 with WM266.4 melanoma cells not above 10 µM. Besides, the IC50 is not above 10 µM in the test with pERK and not above 1 µM at B-RAF.

Regarding `C#CCn1nc(C(C)(C)C)cc1NC(=O)Nc1ccc(Oc2ccnc3[nH]c(=O)c(C)nc23)c2cccnc12` [BB-011], the GI50 with WM266.4 melanoma cells is not above 10 µM. Further, the IC50 with pERK is not above 10 µM; on B-RAF, not above 1 µM.

On to `C#CCn1nc(C(C)(C)C)cc1NC(=O)Nc1ccc(Oc2ccnc3[nH]c(=O)cnc23)c2cccnc12` [BB-012], for which, in the test on WM266.4 melanoma cells, the GI50 is not above 10 µM. Moreover, the IC50 was not above 10 µM in the test with pERK and not above 1 µM on B-RAF.

Regarding `C=CCn1nc(C(C)(C)C)cc1NC(=O)Nc1ccc(Oc2ccnc3[nH]c(=O)cnc23)c2cccnc12` [BB-013], the GI50 in the test on WM266.4 melanoma cells is not above 10 µM. Also, the figures for the IC50 with pERK and at B-RAF were not above 10 µM and not above 1 µM, respectively.
